Laboratory results taken from patent US20130102538A1, “METHOD OF TREATING ALZHEIMER'S DISEASE USING PHARMACOLOGICAL CHAPERONES TO INCREASE PRESENILIN FUNCTION AND GAMMA-SECRETASE ACTIVITY” (AMICUS THERAPEUTICS, INC., priority 2010, published 2013).
“Also recorded” adds a separate entry of the source. Where two headings read alike, the source gives them in different places.

How the values were obtained:
PS1 precursor [1] = molecular target: T1, PS1 precursor (Homo sapiens, UniProt P49768); test: Screening of γ-secretase inhibitors for PS1 precursor (holo) enhancement, western blot; assay type: cell-based; parameters: key to PS1 Precursor Enhancement: −: no effect; +: some effect; ++: moderate effect; +++: strong effect; details: ~50 uM inhibitor, 24 hrs; for PS1 Precursor Enhancement: SH-SY5Y neuroblastoma cells; for PS1 precursor (45 kDa band) level / stabilization: SY5Y neuroblastomas
T1 construct: The unprocessed or precursor form of PS1 is evidenced by a band at 45 kDa; endogenous in cells; host or cells: SH-SY5Y neuroblastoma cells
Protocol: Eighteen different γ-secretase inhibitors (purchased from Calbiochem) were tested for their ability to stabilize the PS1 precursor. SH-SY5Y neuroblastoma cells (1e6) incubated in 6-well plates were dosed with ˜50 uM γ-secretase inhibitor (10% FBS, DMEM) for 24 hrs. Cells were lysed in 2% CHAPS (TBS+protease inhibitors), cell debris pelleted at 18,000 g. Total protein in cell lysates were determined by BCA and 25 ug of protein/lane loaded onto 4-12% BisTris NuPage gels (Invitrogen) that were electrophoresed at 150V for 1 hr. Gels were transferred to PVDF (25V, 1 hr) and probed with anti-N-term PS1 (1:1000, Abcam cat. #ab10281). Western blots were developed using chemiluminescence and imaged using an Alpha Innotech FluorChem Q imaging system. Γ-secretase inhibitors tested: PME, XX, XVII, X, IX, IV, II, I-40, VII, V, III, II-40, I, XIII, XVI, XIX, XXI, CW.
The mature form of PS1 (where PS1 is processed to form a heterodimer) is evidenced by a prominent band at 27 kDa (developed using an antibody specific for the N-terminus of PS1) and is present in all samples. […] The increase in PS1 precursor protein level is interpreted as stabilization of the PS1 precursor and the stabilization appears to be mechanistically distinct from the inhibition of γ-secretase activity since there is no correlation between γ-secretase inhibitory potency (IC50 for Abeta production) and levels of stabilized PS1 precursor (see Table 1).

mature PS1 = molecular target: T2, mature PS1 (Homo sapiens, UniProt P49768); test: Mature PS1 dose response to four day treatment, western blot; assay type: cell-based; details: SY5Y neuroblastomas, four days of treatment, different concentrations
T2 construct: The mature form of PS1 (where PS1 is processed to form a heterodimer) is evidenced by a prominent band at 27 kDa; The mature form of presenlin is a heterodimer consisting of a ˜30 kDa NH2-terminal fragment (NTF) and a ˜20 kDa C-terminal fragment; endogenous in cells; host or cells: SH-SY5Y neuroblastoma cells
Protocol: SY5Y neuroblastomas grown in 6-well plates were dosed with different concentrations of γ-secretase inhibitors IX, XXI, and XX for four days, after which the cells were harvested by centrifugation (5000 g, 5 min.), lysed in RIPA buffer (TBS, 1% TX100, 0.5% taurodeoxycholate, 0.1% SDS plus protease inhibitors) and cleared of unsolubilized cell debris by centrifugation (15,000 g, 10 min., 4 C). Total protein was determined by BCA and equivalent protein loads of 50 ug/lane were separated on a 4-12% BisTris NuPage polyacrylamide gel (Invitrogen) then transferred to PVDF (25V, 1 hr in NuPage Transfer buffer). Western blots were probed with anti-N-term PS1 (1:1000, Abcam cat. #ab10281) followed by development using an anti-rabbit alkaline phosphatase conjugate, chemiluminescence detection and imaged using an Alpha Innotech FluorChem Q imaging system. After PS1 bands were quantified using the FluorChem Q band analysis software, blots were stripped and re-probed for actin (rabbit anti-actin, Pierce Chemicals).

γ-secretase complex = molecular target: T3, γ-secretase complex (Homo sapiens, UniProt P49768); test: Native gel of intact γ-secretase complex from treated fibroblasts; assay type: cell-based; details: wildtype fibroblasts CRL2076, 0-100 uM for 24 hrs, 6 hr wash out
T3 construct: The mature form of presenlin is a heterodimer consisting of a ˜30 kDa NH2-terminal fragment (NTF) and a ˜20 kDa C-terminal fragment; host or cells: wild-type fibroblasts CRL2076
Protocol: Wildtype fibroblasts (CRL2076) in a 6-well plate were treated with different doses of γ-secretase inhibitor IV (0, 3.1, 6.25, 12.5, 25 and 100 uM) for 24 hrs, followed by a 6 hr wash out period. Fibroblasts were harvested by gentle scraping in TBS, collected by centrifugation (5000 g, 5 min) and lysed in 1% digitonin (50 mM NaCl, 50 mM Hepes, pH 7.3) overnight at 4° C. Nonsolubilized cell debris was removed by centrifugation (15,000 g, 10 min.). Total protein was determined by BCA and equivalent proteins loads of 40 ug/lane were separated on a 4-16% native BisTris polyacrylamide gel using Blue-Native cathode and anode buffer system (Invitrogen). The native gel was transferred to PVDF (25V, 1 hr in NuPage Transfer buffer), blocked with Blotto (Pierce) and probed with anti-N-term PS1 (1:1000, Abcam cat. #ab10281) followed by development using an anti-rabbit alkaline phosphatase conjugate, chemiluminescence detection and imaged using an Alpha Innotech FluorChem Q imaging system.

γ-secretase [2] = molecular target: T4, γ-secretase (Homo sapiens, UniProt P49768); details: known IC50s of the inhibitors; read-out: IC50 (Abeta production); cited from earlier work
PS1 precursor [3] = test: Time course of PS1 precursor enhancement, western blot; assay type: cell-based, human; details: 10 uM, lymphoblast cell line AG07622
Protocol: Lymphoblast cell line AG07622 was dosed in 6-well plates with 10 uM of γ-secretase inhibitor X (in 10% FBS, DMEM) for 0 hrs, 2 hrs, 4 hrs, 6 hrs and 24 hrs. Control samples containing 1% DMSO were ran in parallel to the drug treated lymphoblasts. After the specified dosing time, cells were harvested by centrifugation (5000 g, 5 min.), lysed in 2% CHAPS/TBS (with protease inhibitors) and cleared of unsolubilized cell debris by centrifugation (15,000 g, 10 min., 4 C). Total protein was determined by BCA and equivalent proteins loads of 40 ug/lane were separated on a 4-12% BisTris NuPage polyacrylamide gel (Invitrogen) then transferred to PVDF (25V, 1 hr in NuPage Transfer buffer). Western blots were probed with anti-N-term. PS1 (1:1000, Abcam cat. #ab 10281) followed by development using an anti-rabbit alkaline phosphatase conjugate, chemiluminescence detection and imaged using an Alpha Innotech FluorChem Q imaging system.

presenilin 1 = molecular target: T5, presenilin 1 (Mus musculus, UniProt P49769); test: In vivo brain PS1 levels in mice after compound A, western blot; parameters: species or system C57BL6 mice; details: 30 mg/kg oral once daily 4 days
T5 construct: brain levels of mature PS1 remain elevated for well after compound A and α-CTFs have returned to baseline levels; The mature form of presenlin is a heterodimer consisting of a ˜30 kDa NH2-terminal fragment (NTF) and a ˜20 kDa C-terminal fragment; from tissue; host or cells: brain membrane fraction of C57BL6 mice
Protocol: (§1) Mice were treated via gavage once daily for […] with 30 mg/Kg of compound A and then necropsied 0-48 hours after the final dose was administered.
(§2) C57BL6 mice were treated by oral gavage of 30 mg/kg compound A (0.5% methylcellulose carrier) once a day for 4 consecutive days. After the final dose, nine groups of animals (5 animals per group) were sacrificed at different time points ranging from 15 min. post final dose up to 48 hours post final dose (plus an untreated group). Blood was collected and mouse brain samples were minced and homogenized in water using a FastPrep homogenizer (Thermo Scientific). Plasma and brain homogenates were extracted with acetonitrile for measurement of compound A concentrations by LCMS. For biochemical analysis, brains were homogenized (250 mM sucrose, 50 mM Tris, pH 7.5, 1 mM EDTA plus protease inhibitors) and separated into a membrane fraction and soluble fraction by ultracentrifugation at 100,000 g for 1 hr. The membrane fraction was solubilized in RIPA buffer (1% TX100, 0.5% Taurodexoycholate, 0.1% SDS in TBS+PI) and clarified by centrifugation. Total protein was measured by BCA (Pierce) and 30 ug of each sample was separated by SDS/PAGE and analyzed by Western blot. The following antibodies were used: PS1 ( 1/1000 Abcam no. Ab10281); calnexin ( 1/1000 Abcam no. Ab10286) and APP-CTF ( 1/1000 Anaspec 54096). Western blots were developed using an alkaline phosphatase anti-rabbit secondary and an alkaline phosphatase chemiluminescent substrate. Chemiluminescence data was imaged using an Alpha Innotech FluorChem Q imager and band quantification was carried out using densitometry software AlphaViewQ (Alpha Innotech). […] Abeta40 was quantified from diethylamine extracts using BetaMark Abeta40 ELISA kit (Covance); Abeta42 was quantified from diethylamine extracts using the High Sensitivity Abeta42 ELISA kit (Wako).

γ-secretase [4] = test: In vivo brain α-CTF, Aβ40 and Aβ42 levels in mice after compound A; parameters: species or system C57BL6 mice
Protocol: as §1, §2

[5] = Brain concentration of compound A by LCMS; assay type: in vivo; details: C57BL6, mouse, oral, 30 mg/kg, mice, read-out: brain t1/2 (converted)
Protocol: as §2, with “The membrane fraction was solubilized in RIPA buffer (1% TX100, 0.5% Taurodexoycholate, 0.1% SDS in TBS+PI) and clarified by centrifugation.” left out, “The following antibodies were used: PS1 ( 1/1000 Abcam no. Ab10281); calnexin ( 1/1000 Abcam no. Ab10286) and APP-CTF ( 1/1000 Anaspec 54096). Western blots were developed using an alkaline phosphatase anti-rabbit secondary and an alkaline phosphatase chemiluminescent substrate.” left out

γ-secretase [6] = molecular target: T4, γ-secretase; test: γ-secretase inhibitory IC50 of compound A; details: γ-secretase inhibition, compared with brain levels

Compound | PS1 Precursor Enhancement (PS1 precursor [1]) | PS1 precursor (45 kDa band) level / stabilization (PS1 precursor [1]) | mature PS1 protein levels (mature PS1) | IC50 (γ-secretase [2]) [nM] | further results
C[C@H](NC(=O)Cc1cc(F)cc(F)c1)C(=O)N[C@H](C(=O)OC(C)(C)C)c1ccccc1 [IX, (S)-tert-butyl 2-((S)-2-(2-(3,5-difluorophenyl)acetamido)propanamido)-2-phenylacetate] | − | does not stabilize the PS1 precursor | dose dependent increase |  | 
CC(C)[C@H](NC(=O)c1ccc2ccccc2c1)C(=O)N[C@H](C=O)Cc1ccccc1 [IV, N-((S)-3-methyl-1-oxo-1-(((S)-1-oxo-3-phenylpropan-2-yl)amino)butan-2-yl)-2-naphthamide] | ++ | significantly increased |  | 2600 | band intensity / level of the γ-secretase complex (γ-secretase complex): increased levels of the γ-secretase complex; also recorded: increases as a function of increasing concentration
CC(C)C[C@H](NC(=O)[C@H](Cc1ccccc1)C[C@@H](O)[C@H](Cc1ccccc1)NC(=O)OC(C)(C)C)C(=O)N[C@@H](Cc1ccccc1)C(N)=O [X, tert-butyl ((2S,3R,5R)-6-(((S)-1-(((S)-1-amino-1-oxo-3-phenylpropan-2-yl)amino)-4-methyl-1-oxopentan-2-yl)amino)-5-benzyl-3-hydroxy-6-oxo-1-phenylhexan-2-yl)carbamate] | +++ | significantly increased |  | 17 | time at which increase in PS1 precursor is first evident (PS1 precursor [3]): 2 h; time at which maximum PS1 precursor level is reached (PS1 precursor [3]): 24 h
C[C@H](OC(=O)NCC(F)(F)C(F)(F)F)C(=O)N[C@@H]1C(=O)N(C)c2ccccc2-c2ccccc21 [Compound A, (S)-1-(((S)-5-methyl-6-oxo-6,7-dihydro-5H-dibenzo[b,d]azepin-7-yl)amino)-1-oxopropan-2-yl (2,2,3,3,3-pentafluoropropyl)carbamate] |  |  |  |  | brain presenilin levels above untreated levels (presenilin 1; at 24 hours): 50%; increase of brain presenilin levels (presenilin 1; within 1 hour of washout): 50%; maximum increase of brain presenilin levels (presenilin 1; within 8 hours of washout): 2 fold; reduction of brain Aβ42 levels relative to untreated controls (γ-secretase [4]; 30 mg/kg oral once daily 4 days, 48 hrs after the final dose): 40%; Aβ42/Aβ40 ratio in brain (γ-secretase [4]; 30 mg/kg oral once daily 4 days, washout): reduced; time after final dose at which CTF levels begin to drop (γ-secretase [4]; 30 mg/kg oral, brain α-CTFs): 2 h; half-life [5]: ~3.5 h; IC50 (γ-secretase [6]): ~60 nM
C[C@H](NC(=O)Cc1cc(F)cc(F)c1)C(=O)N[C@@H]1C(=O)N(C)c2ccccc2-c2ccccc21 [XX, (S)-2-(2-(3,5-difluoro-phenyl)acetamido)-N-((S)-5-methyl-6-oxo-6,7-dihydro-5H-dibenzo[b,d]azepin-7-yl)propanamide] | +++ | significantly increased; also recorded: do stabilize the PS1 precursor | dose dependent increase | 1.7 | 
